Compound	melting point
CCCCCN(CCC12CC3CC(CC(C3)C1)C2)C(=O)NCCc1ccc(O)cc1	96.3 to 99.4 °C
Cl.O=C(NCc1ccncc1)N(CCC1CCCCC1)Cc1cccs1	161.8 to 164.4 °C
Cl.O=C(NCCCc1ccncc1)N(CCC12CC3CC(CC(C3)C1)C2)CCC12CC3CC(CC(C3)C1)C2	120 to 122.5 °C
CCCCCN(CCC12CC3CC(CC(C3)C1)C2)C(=O)CNCCc1ccncc1.Cl.Cl	133.7 to 137 °C
CC(C)CCN(CCC(C)C)C(=O)NCCCc1ccncc1.Cl	120.5 to 131.7 °C
Cl.Cl.NN(CCC12CC3CC(CC(C3)C1)C2)C(=O)NCCCc1ccncc1	~ 100 °C
Cl.O=C1CCN(CCC2CCCCC2)C(=O)N1Cc1ccncc1	64 to 74.5 °C
Cl.O=C1CCN(CCCc2ccncc2)C(=O)N1CCC12CC3CC(CC(C3)C1)C2	170 °C
O=C(NCCCc1ccncc1)N1CCc2ccccc2C1 [Compound No. 1-5, N-[3-(4-Pyridyl)propyl]-1,2,3,4-tetrahydroisoquinoline-2-carboxamide]	76 to 79 °C
O=C(NCCCc1ccncc1)N1CCOCC1 [Compound No. 1-6, N-[3-(4-Pyridyl)propyl]-4-morpholinecarboxamide]	94 to 98 °C
CN(C)CCN(CCC12CC3CC(CC(C3)C1)C2)C(=O)NCCCc1ccncc1 [Compound No. 1-15, 1-[2-(1-Adamantyl)ethyl]-1-[2-(dimethylamino)ethyl]-3-[3-(4-pyridyl)propyl]urea]	104 to 106.5 °C
CCCN(CCC12CC3CC(CC(C3)C1)C2)C(=O)NCCCc1ccncc1 [Compound No. 1-16, 1-[2-(1-Adamantyl)ethyl]-1-propyl-3-[3-(4-pyridyl)propyl]urea]	99 to 103 °C
C#CCN(CCC12CC3CC(CC(C3)C1)C2)C(=O)NCCCc1ccncc1 [Compound No. 1-17, 1-[2-(1-Adamantyl)ethyl]-1-(2-propynyl)-3-[3-(4-pyridyl)propyl]urea]	152 to 154 °C
O=C(NCCCc1ccncc1)N(CCC12CC3CC(CC(C3)C1)C2)C1CC1 [Compound No. 1-19, 1-[2-(1-Adamantyl)ethyl]-1-cyclopropyl-3-[3-(4-pyridyl)propyl]urea]	108 to 115.5 °C
O=C(NCCCc1ccncc1)N(CCC12CC3CC(CC(C3)C1)C2)CC1CCCC1 [Compound No. 1-21, 1-[2-(1-Adamantyl)ethyl]-1-cyclopentylmethyl-3-[3-(4-pyridyl)propyl]urea]	155 to 158 °C
C=CCN(CCC12CC3CC(CC(C3)C1)C2)C(=O)NCCCc1ccncc1 [Compound No. 1-23, 1-[2-(1-Adamantyl)ethyl]-1-allyl-3-[3-(4-pyridyl)propyl]urea]	99 to 102 °C
CCCCCCN(CCC12CC3CC(CC(C3)C1)C2)C(=O)NCCCc1ccncc1 [Compound No. 1-29, 1-[2-(1-Adamantyl)ethyl]-1-hexyl-3-[3-(4-pyridyl)propyl]urea]	119.5 to 121.5 °C
C=C(C)CN(CCC12CC3CC(CC(C3)C1)C2)C(=O)NCCCc1ccncc1 [Compound No. 1-33, 1-[2-(1-Adamantyl)ethyl]-1-(2-methyl-2-propenyl)-3-[3-(4-pyridyl)propyl]urea]	108 to 109 °C
CN(CCC12CC3CC(CC(C3)C1)C2)C(=O)NCCCc1ccncc1 [Compound No. 1-40, 1-[2-(1-Adamantyl)ethyl]-1-methyl-3-[3-(4-pyridyl)propyl]urea]	99 to 109 °C
CCN(CCC12CC3CC(CC(C3)C1)C2)C(=O)NCCCc1ccncc1 [Compound No. 1-41, 1-[2-(1-Adamantyl)ethyl]-1-ethyl-3-[3-(4-pyridyl)propyl]urea]	106 to 115 °C
CCCCCN(CCC1CCCCC1)C(=O)NCc1ccncc1 [Compound No. 1-52, 1-(2-Cyclohexylethyl)-1-pentyl-3-(4-pyridyl)methylurea]	64.7 to 65.8 °C

From patent US7923461B2, “TNF-α production inhibitors” (Santen Pharmaceutical Co., Ltd., priority 2000, dated 2011)
